Here are results for one substance from patent US20030203864A1, “Treatment of cancer” (priority 2002, published 2003).

“Also recorded” adds a separate entry of the source.

Common to all, as to type: cell-based, human
The subject of one series is EGR-1. Briefly: Western blot of EGR-1 in HepG2 cells. For orientation: Immunoblotting shows a protein as a band on a membrane.
A further series deals with HepG2 cells. Nature of the series: HepG2 cell proliferation (Coulter counter). The note with it: 0.75 μM DNAzyme, 5% FBS, 3 days. As for the experimental part:
HepG2 cells were routinely grown in DMEM, pH 7.4, containing 10% fetal calf serum supplemented with antibiotics. The cells were trypsinized, resuspended in growth medium (to 10,000 cells/200 μl) and 200 μl transferred into sterile 96 well titre plates. Two days subsequently, 180 μl of the culture supernatant was removed, the cells were washed with PBS, pH 7.4, and refed with 180 μl of serum free media. After 6 h, the first transfection of DNAzyme (2 μg/200 μl wall, 0.75 μM final) was performed in tubes containing serum free media using FuGENE6 at a ratio of 1:3 (μg:μl). After 15 min incubation at room temperature, 180 μl of the culture supernantant was replaced with 180 μl of the transfection mix, After 24 h, 180 μl of the supernatant was replaced with 180 μl of new transfection mix, but this time in 5% FBS media. After 3 days, the cells were washed in PBS, pH 7.4, and resuspended by trypsinization in 100 μl trypsin-EDTA. The cells were shaken for approximately 5 min to ensure the cells were in suspension. The entire suspension was placed into 10 ml of Isoton II. That all the cells were transferred was ensured by pipetting Isoton II solution from tubes back into wells several times. Using Isoton II only, background cell number was determined. Each sample was counted three times and used to calculate mean counts and standard errors of each mean.

A further series has as its system HMEC-1 cells. Nature of the series: HMEC-1 proliferation assay (Coulter counter). The note with it: 0.4 μM DNA enzyme. As for the experimental part: HMEC-1 culture and proliferation assay. SV40-transformed HMEC-1 cells were grown in MCDB 131 medium with EGF (10 ng/ml) and hydrocortisone (1 μg/ml) supplements and 10% FBS. […] The cells were quantitated by Coulter counter, 24 h after the addition of serum.

Sequence of EGR-1 (P18146 whole entry): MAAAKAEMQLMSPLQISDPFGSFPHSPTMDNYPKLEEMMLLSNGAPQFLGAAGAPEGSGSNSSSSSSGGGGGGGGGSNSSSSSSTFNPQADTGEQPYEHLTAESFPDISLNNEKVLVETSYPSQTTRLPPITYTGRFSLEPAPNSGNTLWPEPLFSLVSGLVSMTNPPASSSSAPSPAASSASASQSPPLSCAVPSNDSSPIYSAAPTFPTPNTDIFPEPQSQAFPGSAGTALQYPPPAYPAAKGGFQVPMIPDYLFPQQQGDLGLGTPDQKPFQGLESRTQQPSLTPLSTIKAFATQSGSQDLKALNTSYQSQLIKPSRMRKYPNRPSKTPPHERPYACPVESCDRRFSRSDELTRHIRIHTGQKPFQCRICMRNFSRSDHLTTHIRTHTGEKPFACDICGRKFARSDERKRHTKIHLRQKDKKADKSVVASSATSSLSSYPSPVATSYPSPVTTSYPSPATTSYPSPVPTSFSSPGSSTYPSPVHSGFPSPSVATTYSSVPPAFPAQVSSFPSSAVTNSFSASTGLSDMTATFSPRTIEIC

As for “DzA: DNAzyme targeting human EGR-1 mRNA (arms hybridize to nts 189-207), 5′-caggggacaGGCTAGCTACAACGAcgttgcggg (DNA CAGGGGACAGGCTAGCTACAACGACGTTGCGGG; DNA, backbone and methylation of C not given here)”, the “EGR-1 expression in HepG2 cells” value in the series with EGR-1 is listed as “strongly inhibited”. The “serum-stimulated HepG2 cell proliferation” value with HepG2 cells is reported as “almost completely suppressed; also recorded: inhibited”. Moreover, the “HMEC-1 replication (total cell counts)” value with HMEC-1 cells is “inhibited”.
